# According to patent US7767659B2, “Synthesis of naturally occurring ecteinascidins and related compounds” (Pharma Mar, S.A., priority 2002, dated 2010):
# Columns and labels:
# LoVo = test: cells; conditions: Homo sapiens, LoVo, 48 h; for GI50: read-out: LOVO GI50; for CC50: read-out: LOVO LC50; for IC (TGI): read-out: LOVO TGI
# Method in brief: (§1)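 Colorimetric SRB read (490 nm) on triplicate wells after 48 h at 37 °C, 5% CO2. Dose range 10 to 10^−8 μg/ml; 5×10^3 cells/well pre-attached 18 h.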
# A-549 = test: cells; conditions: Homo sapiens, A549, 48 h; for GI50: read-out: A549 GI50; for CC50: read-out: A549 LC50; for IC (TGI): read-out: A549 TGI
# Method in brief: as §1
# HT-29 = test: cells; conditions: Homo sapiens, HT-29, 48 h; for GI50: read-out: HT29 GI50; for CC50: read-out: HT29 LC50; for IC (TGI): read-out: HT29 TGI
# Method in brief: as §1
# K-562 = test: Inhibition of cells growth by colorimetric assay (SRB); conditions: Homo sapiens, K562, 48 h; for GI50: read-out: K562 GI50; for CC50: read-out: K562 LC50; for IC (TGI): read-out: K562 TGI
# Method in brief: as §1
# HeLa = test: as above; conditions: Homo sapiens, HeLa, 48 h; for GI50: read-out: HELA GI50; for CC50: read-out: HELA LC50; for IC (TGI): read-out: HELA TGI
# Method in brief: as §1
# IGROV-ET = test: as above; conditions: Homo sapiens, 48 h; for GI50: read-out: IGROV-ET GI50; for CC50: read-out: IGROV-ET LC50; for IC (TGI): read-out: IGROV-ET TGI
# Method in brief: as §1
# SK-BR-3 = test: as above; conditions: Homo sapiens, SK-BR-3, 48 h; for GI50: read-out: SK-BR3 GI50; for CC50: read-out: SK-BR3 LC50; for IC (TGI): read-out: SK-BR3 TGI
# Method in brief: as §1
# DU-145 = test: as above; conditions: Homo sapiens, DU-145, 48 h; for GI50: read-out: DU145 GI50; for CC50: read-out: DU145 LC50; for IC (TGI): read-out: DU145 TGI
# Method in brief: as §1
# PANC-1 = test: as above; conditions: Homo sapiens, PANC-1, 48 h; for GI50: read-out: PANC-1 GI50; for CC50: read-out: PANC-1 LC50; for IC (TGI): read-out: PANC-1 TGI
# Method in brief: as §1
# HeLa-APL = test: as above; conditions: Homo sapiens, 48 h; for GI50: read-out: HELA-APL GI50; for CC50: read-out: HELA-APL LC50; for IC (TGI): read-out: HELA-APL TGI
# Method in brief: as §1
# LoVo-Dox = test: as above; conditions: Homo sapiens, 48 h; for GI50: read-out: LOVO-DOX GI50; for CC50: read-out: LOVO-DOX LC50; for IC (TGI): read-out: LOVO-DOX TGI
# Method in brief: as §1
# LNCaP = test: as above; conditions: Homo sapiens, LNCaP, 48 h; for GI50: read-out: LNCAP GI50; for CC50: read-out: LNCAP LC50; for IC (TGI): read-out: LNCAP TGI
# Method in brief: as §1
# SK-MEL-28 = test: as above; conditions: Homo sapiens, SK-MEL-28, 48 h; for GI50: read-out: MEL-28 GI50; for CC50: read-out: MEL-28 LC50; for IC (TGI): read-out: MEL-28 TGI
# Method in brief: as §1
# IGROV-1 = test: as above; conditions: Homo sapiens, IGROV-1, 48 h; for GI50: read-out: IGROV GI50; for CC50: read-out: IGROV LC50; for IC (TGI): read-out: IGROV TGI
# Method in brief: as §1
smiles,measurement,setting,value
COc1cc2c(cc1O)CCN[C@]21CS[C@@H]2c3c(OC(=O)/C=C/c4ccccc4)c(C)c4c(c3[C@H](COC1=O)N1C2[C@@H]2N[C@@H](Cc3cc(C)c(OC)c(O)c32)[C@@H]1C#N)OCO4 (stereo partly drawn) [compound 51],GI50,LoVo,3.93 nM
same,CC50,LoVo,11800 nM
same,IC (TGI),LoVo,8.86 nM
same,GI50,A-549,2.85 nM
same,CC50,A-549,542 nM
same,IC (TGI),A-549,6.59 nM
same,GI50,HT-29,5.24 nM
same,CC50,HT-29,11.8 nM
same,IC (TGI),HT-29,2370 nM
same,GI50,K-562,3.15 nM
same,CC50,K-562,653 nM
same,IC (TGI),K-562,7.75 nM
same,GI50,HeLa,3.43 nM
same,CC50,HeLa,15.5 nM
same,IC (TGI),HeLa,6.63 nM
same,GI50,IGROV-ET,43.6 nM
same,CC50,IGROV-ET,11800 nM
same,IC (TGI),IGROV-ET,118 nM
same,GI50,SK-BR-3,5.05 nM
same,CC50,SK-BR-3,11800 nM
same,IC (TGI),SK-BR-3,344 nM
same,GI50,DU-145,5.24 nM
same,CC50,DU-145,11800 nM
same,IC (TGI),DU-145,16.3 nM
same,GI50,PANC-1,3.53 nM
same,CC50,PANC-1,520 nM
same,IC (TGI),PANC-1,7.73 nM
same,GI50,HeLa-APL,3.49 nM
same,CC50,HeLa-APL,10.9 nM
same,IC (TGI),HeLa-APL,6.18 nM
same,GI50,LoVo-Dox,352 nM
same,CC50,LoVo-Dox,11800 nM
same,IC (TGI),LoVo-Dox,11800 nM
same,GI50,LNCaP,2.31 nM
same,CC50,LNCaP,6.82 nM
same,IC (TGI),LNCaP,3.96 nM
same,GI50,SK-MEL-28,2.71 nM
same,CC50,SK-MEL-28,7.94 nM
same,IC (TGI),SK-MEL-28,4.64 nM
same,GI50,IGROV-1,3.35 nM
same,CC50,IGROV-1,118000 nM
same,IC (TGI),IGROV-1,6.45 nM
CCCCCCCC(=O)Oc1c(C)c2c(c3c1[C@H]1SC[C@]4(NCCc5cc(O)c(OC)cc54)C(=O)OC[C@@H]3N3C1[C@@H]1N[C@@H](Cc4cc(C)c(OC)c(O)c41)[C@@H]3C#N)OCO2 (stereo partly drawn) [compound 52],GI50,LoVo,9.17 nM
same,CC50,LoVo,85.7 nM
same,IC (TGI),LoVo,29.6 nM
same,GI50,A-549,8.01 nM
same,CC50,A-549,973 nM
same,IC (TGI),A-549,57.8 nM
same,GI50,HT-29,6.14 nM
same,CC50,HT-29,7780 nM
same,IC (TGI),HT-29,1250 nM
same,GI50,K-562,4.51 nM
same,CC50,K-562,80.6 nM
same,IC (TGI),K-562,21.3 nM
same,GI50,HeLa,5.98 nM
same,CC50,HeLa,1850 nM
same,IC (TGI),HeLa,22.5 nM
same,GI50,IGROV-ET,39.5 nM
same,CC50,IGROV-ET,8530 nM
same,IC (TGI),IGROV-ET,119 nM
same,GI50,SK-BR-3,6.18 nM
same,CC50,SK-BR-3,11900 nM
same,IC (TGI),SK-BR-3,258 nM
same,GI50,DU-145,4.92 nM
same,CC50,DU-145,5140 nM
same,IC (TGI),DU-145,19.3 nM
same,GI50,PANC-1,21.5 nM
same,CC50,PANC-1,610 nM
same,IC (TGI),PANC-1,62.4 nM
same,GI50,HeLa-APL,7.05 nM
same,CC50,HeLa-APL,92.3 nM
same,IC (TGI),HeLa-APL,21.4 nM
same,GI50,LoVo-Dox,273 nM
same,CC50,LoVo-Dox,11900 nM
same,IC (TGI),LoVo-Dox,11900 nM
same,GI50,LNCaP,2.39 nM
same,CC50,LNCaP,9.06 nM
same,IC (TGI),LNCaP,4.66 nM
same,GI50,SK-MEL-28,4.07 nM
same,CC50,SK-MEL-28,52.7 nM
same,IC (TGI),SK-MEL-28,15.5 nM
same,GI50,IGROV-1,7.32 nM
same,CC50,IGROV-1,3060 nM
same,IC (TGI),IGROV-1,43.3 nM
